Data set [1] in a line: Solubility at ˜22-24° C. versus pH. It is filed as physicochemical. The text has this:
However, carbidopa and LDEE, examples of two active materials in the composition of the present invention, have different chemical and physical properties and contrasting solubility characteristics especially in acid conditions, i.e., in the gastrointestinal tract (see Table 1).

Data set [2] can be described thus: Solubility and stability properties of the active materials.

Data on two compounds can be found in patent US20030152628A1, “Dual release formulation comprising levodopa ethyl ester and a decarboxylase inhibitor in an immediate-release layer with levodopa ethyl ester in a controlled release core” (priority 2001, published 2003).

Converted amounts (≈) assume the structure as drawn.

A word on the Solubility: it is how much of the substance goes into solution per volume. Take `CCOC(=O)[C@@H](N)Cc1ccc(O)c(O)c1` [LDEE, levodopa ethyl ester]: the figures for the Solubility in data set [1] (pH 1.0) and in data set [1] (pH 5.0) were 2200 mg/mL (≈ 9770 mM) and 1700 mg/mL (≈ 7550 mM), respectively. Further, in data set [2], the “sensitivity to moisture / hydrolysis” value is listed as “highly sensitive to moisture, undergoes hydrolysis easily”. In data set [2] (kept under refrigeration (2-8° C.)), the “stability at room temperature” value is listed as “not stable at room temperature”.
Consider `C[C@@](Cc1ccc(O)c(O)c1)(NN)C(=O)O` [Carbidopa, carbidopa, reference compound], for which the solubility in water entry in data set [2] was “slightly soluble”.
